Earlier results, collected in patent publication US20090202633A1, “Extended release formulations of guaifenesin” (priority 2008, published 2009).

Key:
[1] = not given; remark: listed apart in the source

typical plasma half-life: approximately one
solubility in water [1]: soluble in water
Compound: COc1ccccc1OCC(O)CO (centres unmarked) [Guaifenesin, 3-(2-methoxyphenoxy)-1,2-propanediol]
